Values of other authors in article PMC8764166, “Phenolic-Rich Plant Extracts With Antimicrobial Activity: An Alternative to Food Preservatives and Biocides?” (Frontiers in Microbiology, 2022).
≈ marks a conversion by molar mass, not a printed value. Like-named read-outs stand apart in the source and are kept apart here.

Experiments:
[1] = system: S. aureus; details: up to 20% (w/w) proteins, 37°C, 15°C or 6°C; ref Bouarab-Chibane et al. (2018b)
[2] = system: Enterococcus faecalis; details: for MIC against Enterococcus faecalis: ref Adamczak et al., 2020; for MIC against E. faecalis: ref del Valle et al., 2016
[3] = system: Escherichia coli; details: for MIC against Escherichia coli: E. coli O157:H7 ATCC 43890, 2.5 10^6 cfu·ml^−1, Mueller Hinton broth, ref Pacheco-Ordaz et al., 2017
[4] = system: Pseudomonas aeruginosa; details: ref Adamczak et al., 2020
[5] = system: Staphylococcus aureus
[6] = system: Bacillus cereus; details: ref Skroza et al., 2019
[7] = system: Salmonella Infantis; parameters: method as in Skroza et al., 2019; details: ref Skroza et al., 2019
[8] = system: biofilms with undesirable food spoiling or foodborne pathogenic microorganisms; parameters: method as in the references listed per substance; details: the references listed per substance
[9] = system: S. aureus; parameters: method as in Stojkovic et al., 2013; details: chicken soup, 4°C, within 3 days; ref Stojkovic et al., 2013
[10] = system: Salmonella enterica serovar Typhimurium; details: ref Alvarado-Martinez et al., 2020
[11] = system: L. monocytogenes; parameters: method as in Pernin et al., 2019; details: ref Pernin et al., 2019
[12] = system: Bacillus subtilis; parameters: method as in Duggirala et al., 2014; details: ref Duggirala et al., 2014
[13] = system: Salmonella typhimurium; details: ref Pacheco-Ordaz et al., 2017
[14] = ŽMJ 129 (clinical isolate), 10^5–10^6 cfu·ml^−1, Mueller Hinton broth, 24 h 37°C, ref Skroza et al., 2019

## O=C1C=CC(=O)c2c(O)ccc(O)c21 [naphthazarin]
[1]
  antibacterial activity in the presence of bovine meat proteins: bactericidal at 6 °C and 15°C, unlike at 37 °C

## O=c1cc(-c2ccc(O)c(O)c2)oc2c([C@@H]3O[C@H](CO)[C@@H](O)[C@H](O)[C@H]3O)c(O)cc(O)c12 [Orientin]
[2]
  MIC against Enterococcus faecalis: 1000 mg/L (≈ 2230 µM)
[3]; ref Adamczak et al., 2020
  MIC against E. coli: 500 mg/L (≈ 1120 µM)
[4]
  MIC against P. aeruginosa: 500 mg/L (≈ 1120 µM)
[5]; ref Adamczak et al., 2020
  MIC against S. aureus: 500 mg/L (≈ 1120 µM)

## O=c1cc(-c2ccc(O)c(O)c2)oc2cc(O)cc(O)c12 [Luteolin]
[2]
  MIC against Enterococcus faecalis: 1000 mg/L (≈ 3490 µM)
[6]
  MIC against Bacillus cereus: 90 mg/L (≈ 314 µM)
[4]
  MIC against P. aeruginosa: 500 mg/L (≈ 1750 µM)
[5]; ref Adamczak et al., 2020
  MIC against S. aureus: 500 mg/L (≈ 1750 µM)
[5]; ref Skroza et al., 2019
  MIC against S. aureus: 45 mg/L (≈ 157 µM)

## Oc1ccc(/C=C/c2cc(O)cc(O)c2)cc1 [Resveratrol]
[2]
  MIC against E. faecalis: E. faecalis 0.12 g·L^−1
[6]
  MIC against Bacillus cereus: 70 mg/L (≈ 307 µM)
[3]; [14]
  MIC against E. coli: 140 mg/L (≈ 613 µM)
[7]
  MIC against Salmonella Infantis: 140 mg/L (≈ 613 µM)
[1]
  antibacterial activity in the presence of bovine meat proteins: always lost their bacteriostatic activity
[5]; ref Skroza et al., 2019
  MIC against S. aureus: 70 mg/L (≈ 307 µM)

## O=c1c(O)c(-c2ccc(O)cc2)oc2cc(O)cc(O)c12 [Kaempferol]
[2]
  MIC against E. faecalis: E. faecalis 0.1 g·L^−1
[6]
  MIC against Bacillus cereus: 90 mg/L (≈ 314 µM)
[3]; ref Adamczak et al., 2020
  MIC against E. coli: E. coli 0.5 g·L^−1
[3]; [14]
  MIC against E. coli: 360 mg/L (≈ 1260 µM)
[7]
  MIC against Salmonella Infantis: 360 mg/L (≈ 1260 µM)
[5]; ref Skroza et al., 2019
  MIC against S. aureus: 90 mg/L (≈ 314 µM)

## O=c1cc(-c2ccc(O)c(O)c2)oc2cc(O)c([C@@H]3O[C@H](CO)[C@@H](O)[C@H](O)[C@H]3O)c(O)c12 [isoorientin]
[2]
  MIC against Enterococcus faecalis: 1000 mg/L (≈ 2230 µM)
[3]; ref Adamczak et al., 2020
  MIC against E. coli: 500 mg/L (≈ 1120 µM)
[4]
  MIC against P. aeruginosa: 500 mg/L (≈ 1120 µM)
[5]; ref Adamczak et al., 2020
  MIC against S. aureus: 500 mg/L (≈ 1120 µM)

## O=c1cc(-c2ccccc2)oc2ccccc12 [Flavone]
[2]
  MIC against Enterococcus faecalis: E. faecalis 0.5 g·L^−1 E. coli 0.5 g·L^−1 P. aeruginosa 0.5 g·L^−1
[3]; ref Adamczak et al., 2020
  MIC against E. coli: E. faecalis 0.5 g·L^−1 E. coli 0.5 g·L^−1 P. aeruginosa 0.5 g·L^−1
[4]
  MIC against P. aeruginosa: E. faecalis 0.5 g·L^−1 E. coli 0.5 g·L^−1 P. aeruginosa 0.5 g·L^−1

## Oc1cc(O)c2c(c1)O[C@H](c1ccc(O)c(O)c1)[C@H](O)C2 [Epicatechin]
[6]
  MIC against Bacillus cereus: 360 mg/L (≈ 1240 µM)
[3]; [14]
  MIC against E. coli: 720 mg/L (≈ 2480 µM)
[7]
  MIC against Salmonella Infantis: 720 mg/L (≈ 2480 µM)
[5]; ref Skroza et al., 2019
  MIC against S. aureus: 720 mg/L (≈ 2480 µM)

## O=c1cc(-c2ccc(O)cc2)oc2cc(O)c([C@@H]3O[C@H](CO)[C@@H](O)[C@H](O)[C@H]3O)c(O)c12 [isovitexin]
[2]
  MIC against Enterococcus faecalis: 1000 mg/L (≈ 2310 µM)
[3]; ref Adamczak et al., 2020
  MIC against E. coli: 500 mg/L (≈ 1160 µM)
[4]
  MIC against P. aeruginosa: 500 mg/L (≈ 1160 µM)

## O=C(O)/C=C/c1ccccc1 [cinnamic acid]
[8]
  activity against biofilms: inhibit formation or to eradicate biofilms

## C[C@@H]1O[C@@H](OC[C@H]2O[C@@H](Oc3c(-c4ccc(O)c(O)c4)oc4cc(O)cc(O)c4c3=O)[C@H](O)[C@@H](O)[C@@H]2O)[C@H](O)[C@H](O)[C@H]1O [Rutin]
[2]
  MIC against Enterococcus faecalis: 1000 mg/L (≈ 1640 µM)
[3]; ref Adamczak et al., 2020
  MIC against E. coli: 500 mg/L (≈ 819 µM)
[9]
  concentration totally inhibiting growth of S. aureus: – for concentrations above 0.23% (w/v), each phenolic totally inhibited the growth of S. aureus inoculated in chicken soup at 4 °C within 3 days
[4]
  MIC against P. aeruginosa: 500 mg/L (≈ 819 µM)
[5]; ref Adamczak et al., 2020
  MIC against S. aureus: 1000 mg/L (≈ 1640 µM)

## O=C(O)c1ccc(O)c(O)c1 [Proto-catechuic acid]
[6]
  MIC against Bacillus cereus: 190 mg/L (≈ 1230 µM)
[3]; 24 h 37°C
  MIC against Escherichia coli: E. coli, 3.1 g·L^−1
[3]; [14]
  MIC against E. coli: 380 mg/L (≈ 2470 µM)
[10]
  cell morphology: morphological defects at the polar ends of bacteria
  expression of virulence genes (SPI-1): downregulation of key regulatory genes
  membrane permeabilization: membrane permeabilization
[7]
  MIC against Salmonella Infantis: 380 mg/L (≈ 2470 µM)
[11]
  mechanism of action against L. monocytogenes: penetration or accumulation in the bacterial membrane of undissociated form
[5]; ref Skroza et al., 2019
  MIC against S. aureus: 380 mg/L (≈ 2470 µM)

## O=c1ccc2ccc(O)c(O)c2o1 [daphnetin]
[12]
  length of bacteria: increase in length of bacteria

## COc1cc(C(=O)O)ccc1O [Vanillic acid]
[6]
  MIC against Bacillus cereus: 100 mg/L (≈ 595 µM)
[3]; 24 h 37°C
  MIC against Escherichia coli: 3400 mg/L (≈ 20200 µM)
[3]; [14]
  MIC against E. coli: 100 mg/L (≈ 595 µM)
[10]
  cell morphology: observation of mid-division cells
  membrane permeabilization: membrane permeabilization
[13]
  MIC against Salmonella typhimurium: 2500 mg/L (≈ 14900 µM)
[7]
  MIC against Salmonella Infantis: 210 mg/L (≈ 1250 µM)
[8]
  activity against biofilms: inhibit formation or to eradicate biofilms
[11]
  mechanism of action against L. monocytogenes: penetration or accumulation in the bacterial membrane of undissociated form
[5]; ref Skroza et al., 2019
  MIC against S. aureus: 420 mg/L (≈ 2500 µM)

## O=c1c(O)c(-c2cc(O)c(O)c(O)c2)oc2cc(O)cc(O)c12 [myricetin]
[8]
  activity against biofilms: inhibit formation or to eradicate biofilms
